Assay results as given in US20240307480A1, “MELFLUFEN FOR USE IN THE TREATMENT OF MULTIPLE MYELOMA” (Oncopeptides AB, priority 2021, published 2024).

System: patients with relapsed refractory multiple myeloma (RRMM) refractory to lenalidomide
Experiment: Randomized, controlled, open-label, Phase 3 multicenter study of melflufen+dexamethasone versus pomalidomide+dexamethasone (Example 1)
Format: in vivo, human
Settings: for OS / PFS: no stem cell transplant
Procedure: Patients received either melflufen+dexamethasone or pomalidomide+dexamethasone.
Patients were randomized to either one of two arms (see Table 1 below): • Arm A: Melphalan flufenamide (Melflufen) 40 mg on Day 1 and dexamethasone 40 mg on Days 1, 8, 15 and 22 of each 28-day cycle. • Arm B: Pomalidomide 4 mg daily on Days 1 to 21 and dexamethasone 40 mg on Days 1, 8, 15 and 22 of each 28-day cycle.
Dose modifications and delays in therapy were implemented based on patient tolerability as detailed in the protocol. In the event of a cycle delay, unrelated to dexamethasone toxicity, it was recommended to continue dexamethasone weekly.
• Study Type: Interventional (Clinical Trial) • Actual Enrollment: 495 participants • Allocation: Randomized • Intervention Model: Parallel Assignment • Masking: Single (Outcomes Assessor) • Primary Purpose: Treatment • Official Title: A Randomized, Controlled, Open-label, Phase 3 Study of Melflufen/Dexamethasone Compared With Pomalidomide/Dexamethasone for Patients With Relapsed Refractory Multiple Myeloma Who Are Refractory to Lenalidomide
• 1. Progression Free Survival (PFS) [Time Frame: From randomization to time of progression, or, if no progression, 24 months after end of treatment]: To compare the PFS of melflufen plus dexamethasone (Arm A) versus pomalidomide plus dexamethasone (Arm B) as assessed by the Independent Review Committee (IRC) according to the International Myeloma Working Group Uniform Response Criteria (IMWG-URC)
• 1. […] Overall Survival (OS) [Time Frame: From randomization until end of study (2 years after confirmed progression)]: To assess and compare OS in Arm A versus Arm B • 4. Safety and Tolerability: Number of patients with treatment-emergent adverse events, including clinical laboratory and vital signs abnormalities, as assessed by CTCAE v4.0 [Time Frame: From start of dosing until 30 days after last dose]: To assess and compare safety and tolerability in Arm A versus Arm B. Number of patients with treatment-emergent adverse events, including clinical laboratory and vital signs abnormalities, as assessed by CTCAE v4.0 will be presented. No formal statistical analysis will be performed for safety endpoints.
• 1. Male or female, age 18 years or older • 2. A prior diagnosis of multiple myeloma with documented disease progression requiring further treatment at time of screening • 3. Measurable disease defined as any of the following: • Serum monoclonal protein ≥0.5 g/dl by protein electrophoresis. • ≥200 mg/24 hours of monoclonal protein in the urine on 24-hour electrophoresis • Serum free light chain ≥10 mg/dl AND abnormal serum kappa to lambda free light chain ratio • 4. Received 2-4 prior lines of therapy, including lenalidomide and a PI, either sequential or in the same line, and is refractory (relapsed and refractory or refractory) to both the last line of therapy and to lenalidomide (≥10 mg) administered within 18 months prior to randomization. Refractory to lenalidomide is defined as progression while on lenalidomide therapy or within 60 days of last dose, following at least 2 cycles of lenalidomide with at least 14 doses of lenalidomide per cycle • 5. Life expectancy of ≥6 months • 6. Eastern Cooperative Oncology Group (ECOG) performance status ≤2 • 7. […] Participants must agree to ongoing pregnancy testing. All patients must be willing to comply with all requirements of the USA pomalidomide Risk Evaluation and Mitigation Strategy (REMS) program or the pomalidomide Pregnancy Prevention Plan (PPP) • 8. Ability to understand the purpose and risks of the study and provide signed and dated informed consent • 9. 12-lead Electrocardiogram (ECG) with QT interval calculated by Fridericia Formula (QTcF) interval of ≤470 msec Fridericia Formula • 10. […] Must be able to take antithrombotic prophylaxis • 12. Must have, or be willing to have an acceptable central catheter.

[1] = excluding patients who had received a stem cell transplant and progressed in under 36 months (melflufen+dex n=145, pomalidomide+dex n=148)
[2] = subgroup patients under 65 years
[3] = patients 75 or over who received melflufen, pomalidomide comparator worded as patients who had not received a stem cell transplant
[4] = patients who had not received a stem cell transplant as a past treatment (melflufen n=121, pomalidomide n=129), each arm with dexamethasone
[5] = stem cell transplant at least 5 years ago, melflufen in relation to pomalidomide, value below 1 favours melflufen

Compound | median overall survival (OS) [1] [months] | OS (subgroup 64 to 74 years) | PFS (subgroup 64 to 74 years) | OS (subgroup 75 years and over) | PFS (subgroup 75 years and over) | OS (subgroup age under 75 years) | PFS (subgroup age under 75 years) | OS [2] | PFS [2] | median PFS [3] [months] | median overall survival (OS) [3] [months] | median overall survival (OS) [4] [months] | median progression free survival (PFS) [4] [months] | hazard ratio (PFS) (stem cell transplant 2.5 to 5 years ago, melflufen in relation to pomalidomide, value below 1 favours melflufen) | OS hazard ratio [5] | PFS hazard ratio [5]
CCOC(=O)[C@H](Cc1ccc(F)cc1)NC(=O)[C@@H](N)Cc1ccc(N(CCCl)CCCl)cc1.Cl [melflufen, L-melphalanyl-4-fluoro-L-phenylalanine ethyl ester] | 23.6 | 22.2 | 9.3 | 14.8 | 9.3 | 22.2 | 9.4 | 27.5 | 10.8 | 9.4 | 21.6 | 21.6 | 9.3 | 0.83 | 0.87 | 0.76
Nc1cccc2c1C(=O)N(C1CCC(=O)NC1=O)C2=O (stereo not shown) [pomalidomide, reference compound] | 19.8 | 15.0 | 3.9 | 8.1 | 4.9 | 18.2 | 4.3 | – | 4.7 | 4.6 | 8.3 | 16.5 | 4.6 | – | – | –
